“Also recorded” adds a separate entry of the source.
Columns and labels:
[1] = test system: T98G parental cells; test: PCR stop assay for DNA damage (2.7 Kb HPRT fragment) in T98G parental cells; type: cell-based, human
Protocol: (§1) This assay has been described (Oshita and Saijo, 1994; Jannerwein and Eastman, 1991). The assay is based on the principle that every DNA lesion, including adducts produced by cisplatin, can potentially block the progression of the Taq polymerase and decrease the yield of a given PCR™ product. […] Furthermore, when whole cells are incubated with varying levels of cisplatin, the degree of inhibition of amplification of a specific PCR™ product from DNA purified from these cells, correlates closely with the amount of DNA damage (level of DNA platination) as measured by atomic adsorption (Jannerwein and Eastman, 1991). The following primers (used by Oshita and Saijo, 1994) which amplify a 2.7 Kb fragment of the human hypoxanthine phosphoribosyl transferase (HPRTase) gene were used:
(§2) As an internal control for the efficiency of the PCR™ reaction, a nested 5′ primer which amplifies a 150 bp fragment of the same gene was used:
At the cisplatin levels used to treat the cells, damage to the smaller fragment is undetectable. […] In some experiments, 3-aminobenzamide (10 mM), an inhibitor of ADP ribosylation and DNA repair (see Din et al., 1992) was added during the 6 hour recovery period. […] DNA was washed with 70% EtOH to remove salt, followed by 100% EtOH dried briefly, and resuspended at 1 mg/ml in sterile H2O. Quantitative PCR™ was performed in 50 μl aliquots using 0.5 μg DNA, 50 pmol of forward primer for 2.7 Kb fragment, 50 pmol reverse primer, and 5 pmol of forward primer for the 150 base fragment, 50 mM KCL, 10 nmM Tris pH 8.3, 1.5 mM MgCl2, […], 0.5 μl Tac polymerasse (Perkin Elmer), and 1 pmol radioactively end-labeled reverse primer (labeled with y-^32P-dATP). Amplification conditions were as follows: 1 cycle: 94° C., 1′30; 25 cycles: 94° (1 min)-57° (1 min)-70° (2′30″); 1 cycle:94° (1 min)-57° (1 min)-70° (7′). […] The gel was vacuum-dried for two hours onto filter paper and the PCR™-amplified 2.7 Kb and 150 bp bands were quantitated using an Ambis4000 Radioanalytic Imaging system (Ambis, Inc., San Diego, Calif.).

[2] = test system: 9L rat glioblastoma cells; test: Cell viability assay (MTS) in 9L rat glioblastoma cells; type: cell-based
Protocol: (§3) T98G glioblastoma cells were obtained from ATCC and cultured at 37° C. 10% CO2 in Dulbecco's Modified Eagles Medium supplemented with 10% newborn calf serum. 9L rat glioblastoma cells were obtained from Carol Cruse (University of Colorado) and cultured at 37° C. in 10% CO2 in Dulbecco's Modified Eagles Medium supplemented with 10% fetal Calf serum. The T98G-LHCmjun clone (termed T98G mutant jun or T98G-mjun), as well as control empty vector modified clone (termed T98GLHCX) were obtained from Dr. Dan Mercola (Sidney Kimmel Cancer Center) and were cultured in the same way as were T98G cells except that 100 μg/ml hygromycin was added to the culture medium. The 98G-mjun is stably modified to express a dominant negative mutant of c-jun (the mutant was obtained by site-directed mutagenesis by M. Karin and colleagues and is described by Smeal et al. (1991). Mutant jun has ser→ala substitutions at positions 63 and 73, two sites of DNA damage-induced phosphorylation, and can therefore not be phosphorylated at these sites. 9LpCEPp53 (or 9LpCEP4, control) were cultured in the same way at 9L cells except that 50 μg/ml hygromycin was added to the medium.
Rat 9L glioblastoma cells express p53 mutated at codon 277 (J. Neuroonal. 19:259-268, 1994.) 9LpCEPp53 (or 9LpCEP4) were obtained by transducing 5×10^5 9L cells with 15 μG of pCEPp53 (or pCEP4) using Lipofectamine (GIBCO/BRL, Gaithersberg, Md.) following the manufacturer's instructions. Clones were selected in 50 μg/ml hygromycin and characterized for wild-type p53 expression by immunoprecipitation (immunoprecipitation procedure described in: Gjerset et al., Molec. Carcinog. 5:190-198, 1992) using the 1801 anti-p53 antibody specific for human p53 (p-Ab-2, Oncogene Science, Uniondale, N.Y.), and by the PG13 functional assay described above. pCEPp53 was derived by inserting the human wild-type p53 cDNA into the multicloning site of pCEP4.
(§4) Cells were infected when they were at 80% confluence with either 100 pfu per cell overnight in DMEM containing 2% heat-inactivated FBS (for T98G and clones derived from T98G) or at 50 pfu per cell for 2 hours (9L cells). The efficiency of infection was determined by staining a sample of the β-gal virus-infected cells at 48 hrs post-infection as described (Dannenerg and Saga, 1981).
(§5) Viability assays were performed in 96 wells plates 6-7 days after plating. Cells were plated at a starting cell number per well of 1000. Triplicate or quadruplicate wells were set up for each assay point. […] For cisplatin treatment, triplicate or quadruplicate wells were exposed for 1 hour to various concentrations of cisplatin (Platinol™), and then incubated in the absence of cisplatin for 7 days, during which time control (untreated) wells were in exponential phase growth. Viable cell number was based on the bioconversion of the tetrazolium compound, MTS, into formazan (Promega, Celltiter96™Aqeous), as determined by absorbance at […] using an ELISA reader. For 3-aminobenzamide (ABZ) treatment, triplicate or quadruplicate wells were treated with either 5 mM ABZ or 10 mM ABX. Fresh ABZ was added every two days and viability was scored as described above at 6 days. Assays involving the synthetic retinoid SR11220 were performed in the presence of charcoal-treated fetal bovine serum. Medium was replaced every two days with medium containing fresh retinoid.

[3] = test system: T98G glioblastoma cells; test: Cell viability assay (MTS) in T98G glioblastoma cells; type: cell-based; settings: for cell viability: 7 days post-treatment
Protocol: as §3, §4, §5

[4] = test system: T98G-mutant jun cells; test: PCR stop assay for DNA damage (2.7 Kb HPRT fragment) in T98G-mutant jun cells; type: cell-based, human; settings: varying concentrations
Protocol: as §1, §2
At the cisplatin levels used to treat the cells, damage to the smaller fragment is undetectable. […] In some experiments, 3-aminobenzamide (10 mM), an inhibitor of ADP ribosylation and DNA repair (see Din et al., 1992) was added during the 6 hour recovery period. […] The gel was vacuum-dried for two hours onto filter paper and the PCR™-amplified 2.7 Kb and 150 bp bands were quantitated using an Ambis4000 Radioanalytic Imaging system (Ambis, Inc., San Diego, Calif.).

[5] = test system: T47D breast cancer cells; test: Cell viability assay (MTS) in T47D breast cancer cells; type: cell-based; settings: for cell viability: one hour cisplatin, various concentrations, 7 days post-infection; for viability: 7 days
Protocol: Cells were infected when they were at 80% confluence with either 100 pfu per cell overnight in DMEM containing 2% heat-inactivated FBS (for T98G and clones derived from T98G) or at 50 pfu per cell for 2 hours (9L cells).
as §5

SMILES: NC(=O)c1cccc(N)c1 [3-aminobenzamide]
- DNA damage (percentage of control PCR signal) ([1]; 10 mM 3-aminobenzamide, six hours post treatment with varying concentrations of cisplatin): significant DNA damage
- viability ([2]; 9L cells stably expressing human wild-type p53 (pCEPp53), 5 mM 3-aminobenzamide for 6 days): low viability
- viability ([2]; 9L cells stably expressing human wild-type p53 (pCEPp53), 10 mM 3-aminobenzamide for 6 days): even lower viability
- growth inhibition ([2]; 9L cells stably expressing only control vector pCEP4, both 5 mM and 10 mM 3-aminobenzamide, 6 days): resistant to growth inhibition

SMILES: N.N.[Cl][Pt][Cl] [cisplatin]
- cell growth / viability ([3]; T98G cells infected with wild-type p53 adenovirus, one hour cisplatin, various concentrations, 7 days post-infection): growth suppression in a dose dependent manner
- growth rate ([3]; T98G cells infected with βgal adenovirus, increasing levels of cisplatin, 7 days post-infection): slightly reduce growth rate
- cell viability ([3]; T98G cells stably modified with wild-type p53 vector pLp53RNL, one hour cisplatin, increasing doses): reduced in a dose dependent manner
- cell viability ([3]; control T98G cells stably modified with vector only, pLNRL, one hour cisplatin): more resistant
- DNA damage (percentage of control PCR signal) ([1]; six hours after 1.5 hour cisplatin treatment, no 3-aminobenzamide): partially reduced; also recorded: no significant DNA damage remained
- DNA damage (percentage of control PCR signal) ([1]; zero hours after 1.5 hour treatment with varying concentrations of cisplatin): considerable DNA damage
- viability ([2]; 9L cells infected with p53 adenovirus, compared to βgal adenovirus, 50 μM cisplatin one day later, measured seven days after cisplatin): significant decrease in viability
- cell viability ([2]; 9L cells stably modified with wild-type p53 vector pCEPp53, compared to control vector pCEP4, one hour cisplatin, various concentrations, 7 days post-treatment): significantly reduced the viability
- repair of DNA damage ([4]; six hours after 1.5 hours cisplatin): not able to be repaired
- DNA damage (percentage of control PCR signal) ([4]; zero hour after 1.5 hours cisplatin): high levels of DNA damage
- cell viability ([5]; T47D cells infected with wild-type p53 adenovirus, two days post-infection): decreased with increasing doses of cisplatin
- viability ([5]; T47D cells infected with βgal adenovirus control, 10^−8 M SR11220, 10 μM cisplatin or combination): not reduced significantly
- cell viability ([5]; control T47D cells infected with βgal-adenovirus): significantly more refractory
- viability ([5]; p53 adenovirus infected T47D cells, 10 μM cisplatin, 1 hour exposure): an even greater effect on the reduction in viability

— patent US20050095226A1, “Down-regulation of DNA repair to enhance sensitivity to p53-mediated suppression” (priority 1996, published 2005)
